Results on 50 molecules are retold here after patent US7405211B2, “Therapeutic morpholino-substituted compounds” (AstraZeneca AB, priority 2000, dated 2008).

Holding throughout (type): biochemical
In assay [1] the test system is PI 3-kinase immunoprecipitated from human platelets. As to the kind of experiment: In vitro PI 3-kinase assay (32P incorporation into PI). The following applies: PI 3-kinase from human platelets, PI substrate. As for the experimental part:
The effect of TGX-25, TGX-33, TGX-37, TGX-40, TGX-41, TGX-57, TGX-84, TGX-90, TGX-93, TGX-98, TGX-99, TGX-101, TGX-106, TGX-107, TGX-108, TGX-109, TGX-111, TGX-112, TGX-113, TGX-115, TGX-120, TGX-121, TGX-123, TGX-124, TGX-126, TGX-127, TGX-130 or TGX-131on PI 3-kinase activity was determined using an in vitro PI 3-kinase assay. This assay was performed using PI 3-kinase immunoprecipitated from human platelets as the enzyme and PI as the substrate. The PI 3-kinase activity was quantitated by measuring the enzymatic incorporation of [^32P] into PI, forming PI([^32P]-3)P, as previously described (Susa et al., 1992, The Journal of Biological Chemistry 267(32):22951-22956.
Washed human platelets were lysed in Triton X-100 lysis buffer (10 mM Tris, pH 7.4, 1% Triton X-100, 2 mM EDTA, 1 mM PMSF) for 30 minutes. The Triton X-100 insoluble fraction was removed by centrifugation of the cell lysates at 15,000 g for 10 minutes. PI 3-kinase was immunoprecipitated by mixing 500 μg of the cell lysate with 1 μg of a rabbit anti-rat antibody against the p85/110 form of PI 3-kinase and 30 μl of 50% Protein A-sepharose beads for 2 hours at 4° C. The Protein A-sepharose-bound PI 3-kinase was isolated by pelleting the beads at 15,000 g for 5 seconds, and washing three times with ice-old Triton X-100 lysis buffer followed by four washes with PI 3-kinase assay buffer (20 mM HEPES, pH 7.4, 1 mM EGTA, 5 mM MgCl2).
PI stored in CHCl3 was dried under N2, resuspended in the lipid buffer (50 mM HEPES, pH 7.2, 1 mM EDTA) at a final concentration of 330 μg/ml, and sonicated for 6 minutes on ice. PI([^32P]-3)P was generated by mixing the immunoprecipitated PI 3-kinase for 20 minutes with 40 μl of the PI, 10 μl of ATP (1 mM) and ^32P-r-ATP (0.5 μCi, 1 μCi/nmol), 10 μl of 10× kinase buffer, in a final assay volume of 100 μl adjusted with H2O. TGX-25, TGX-33, TGX-37, TGX-40, TGX-41, TGX-57, TGX-84, TGX-90, TGX-93, TGX-98, TGX-99, TGX-101, TGX-106, TGX-107, TGX-108, TGX-109, TGX-111, TGX-112, TGX-113, TGX-115, TGX-120, TGX-121, TGX-123, TGX-124, TGX-126, TGX-127, TGX-130 or TGX-131 was preincubated with the PI 3-kinase for 5 minutes prior to the addition of ATP. The assay was terminated with 100 μl of 1 N HCl, and the PI([^32P]-3)P product extracted with 200 μl chloroform:methanol (1:1) and 500 μl 2 M KCl. The PI([^32P]-3)P in the chloroform phase was resolved by thin layer chromatography using a solvent system containing CHCl3:MeOH:HAC:H2O (43:38:5:7) (v:v:v:v), and visualized by autoradiography. The PI([^32P]-3)P spots were then scraped off from the TLC plates, deacylated with 1 ml methylamine:butanol:methanol (42:9:47) (v:v:v) for 4 hours at 53° C., and quantitated using a liquid scintillation counter (LKB 1209 RackBETA).

A further assay deals with T1, PI3K γ (Homo sapiens, UniProt P48736).
T1 construct: made in house
T1 sequence (P48736 whole entry, species assumed): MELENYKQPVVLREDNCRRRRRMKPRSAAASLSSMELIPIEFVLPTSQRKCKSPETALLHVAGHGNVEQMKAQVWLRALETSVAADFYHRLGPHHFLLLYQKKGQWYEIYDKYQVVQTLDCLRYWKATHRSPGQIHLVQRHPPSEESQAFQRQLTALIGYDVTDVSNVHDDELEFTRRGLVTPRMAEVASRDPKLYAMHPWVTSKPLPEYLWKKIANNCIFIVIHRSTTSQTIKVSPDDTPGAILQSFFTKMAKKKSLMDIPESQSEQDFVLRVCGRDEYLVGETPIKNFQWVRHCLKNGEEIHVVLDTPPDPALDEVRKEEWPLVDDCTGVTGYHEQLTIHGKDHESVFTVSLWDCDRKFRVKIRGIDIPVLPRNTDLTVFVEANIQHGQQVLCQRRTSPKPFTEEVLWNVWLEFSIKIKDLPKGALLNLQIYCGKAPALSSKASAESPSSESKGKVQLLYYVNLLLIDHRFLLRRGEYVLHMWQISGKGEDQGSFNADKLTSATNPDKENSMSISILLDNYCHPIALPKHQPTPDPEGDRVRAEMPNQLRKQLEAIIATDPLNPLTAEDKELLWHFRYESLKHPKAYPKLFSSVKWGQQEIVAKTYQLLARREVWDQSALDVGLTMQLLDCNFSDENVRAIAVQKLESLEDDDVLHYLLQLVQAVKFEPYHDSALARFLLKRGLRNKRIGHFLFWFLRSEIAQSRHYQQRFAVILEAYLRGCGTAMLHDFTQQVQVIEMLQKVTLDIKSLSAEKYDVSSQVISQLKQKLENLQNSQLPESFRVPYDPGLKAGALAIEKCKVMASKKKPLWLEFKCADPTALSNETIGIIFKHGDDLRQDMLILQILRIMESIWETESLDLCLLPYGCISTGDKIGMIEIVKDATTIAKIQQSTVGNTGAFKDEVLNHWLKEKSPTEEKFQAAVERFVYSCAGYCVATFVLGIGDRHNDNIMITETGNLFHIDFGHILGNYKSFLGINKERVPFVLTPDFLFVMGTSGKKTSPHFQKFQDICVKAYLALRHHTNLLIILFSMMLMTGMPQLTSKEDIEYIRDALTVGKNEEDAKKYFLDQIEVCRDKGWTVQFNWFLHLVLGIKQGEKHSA
Description: In vitro enzyme assay PI3K γ (recombinant). The following applies: recombinant γ isoform. As for the experimental part:
(§1) In vitro enzyme assays were conducted as a primary screen to determine drug candidate isoform affinity and specificity.
(§2) The α and β isoforms of the PI3K were immunoprecipitated from a platelet lysate using an antibody that recognised the p85 regulatory subunit common to both forms of the enzyme. The γ isoform was produced as a recombinant protein in the Thrombogenix laboratories. […] Standard phosphorylation assays using phosphatidylinositol and ^32P were used to measure the enzyme activity in the immunoprecipates in the presence or absence of an inhibitor. Enzyme activity was determined over a range of inhibitor concentrations to establish an IC50 value.

For the next assay, the target named is PI3K α/β isoforms. As to the kind of experiment: In vitro enzyme assay PI3K α/β. The settings on record: immunoprecipitated from platelet lysate. As for the experimental part:
as §1, §2

As to `Cc1cccn2c(=O)cc(N3CCOCC3)nc12` [TGX-25], the IC50 (as a rule, the concentration needed to halve the response being measured) in assay [1] was around 11100 nM.
Same read-out and setting: for `O=c1cc(N2CCOCC2)nc2c(-c3ccccc3)cccn12` [TGX-37] the value was around 10500 nM; for `Cc1cc(-c2ccccc2)c2nc(N3CCOCC3)cc(=O)n2c1` [TGX-41], around 9800 nM.
For `O=c1cc(N2CCOCC2)[nH]c2c(Cc3ccccc3)cccc12` [TGX-57, 8-Benzyl-2-morpholinoquinolone], in assay [1], inhibition was half-maximal at 2000 nM (IC50).
Turning to `O=c1cc(N2CCOCC2)oc2c(Cc3ccccc3)cccc12` [TGX-90, 2-morpholinyl-8-(phenylmethyl)-4H-1-benzopyran-4-one], the IC50 in assay [1] was 100 nM; at PI3K γ, 3000 nM; against PI3K α/β isoforms, 100 nM.
Turning to `Cc1cc(-c2ccsc2)c2nc(N3CCOCC3)cc(=O)n2c1` [TGX-93], 1000 nM corresponded to half-maximal inhibition in assay [1] (IC50).
With `Cc1cc(CCc2ccncc2)c2nc(N3CCOCC3)cc(=O)n2c1` [TGX-98], the IC50 in assay [1] stood at 1000 nM.
In assay [1], `O=c1cc(N2CCOCC2)[nH]c2c(Cc3ccc(F)cc3)cccc12` [TGX-99] yielded an IC50 of 1000 nM.
Turning to `Cc1cc(Nc2ccc(O)cc2)c2nc(N3CCOCC3)cc(=O)n2c1` [TGX-101], the IC50 was 100 nM in assay [1], 2000 nM at PI3K γ and 100 nM at PI3K α/β isoforms.
For `O=c1cc(N2CCOCC2)oc2c(OCc3ccccc3)cccc12` [TGX-102], the IC50 in assay [1] was 100 nM; at PI3K γ, 2000 nM; on PI3K α/β isoforms, 100 nM.
For `Cc1ccc(Cc2cccc3c(=O)cc(N4CCOCC4)[nH]c23)cc1` [TGX-106], the IC50 in assay [1] was 2000 nM.
On to `Cc1cc(Nc2ccc(Cl)cc2)c2nc(N3CCOCC3)cc(=O)n2c1` [TGX-107], for which the IC50 in assay [1] turned out to be 1000 nM.
In assay [1], `Cc1cc(NCc2ccc(Cl)cc2)c2nc(N3CCOCC3)cc(=O)n2c1` [TGX-108] had an IC50 of 1000 nM.
The molecule `Cc1ccc(Oc2cc(C)cn3c(=O)cc(N4CCOCC4)nc23)cc1` [TGX-109] yielded an IC50 in assay [1] of 1000 nM.
Take `O=c1cc(N2CCOCC2)[nH]c2c(Sc3ccccc3)cccc12` [TGX-111]: the IC50 is 50 nM in assay [1], above 10000 nM at PI3K γ and 50 nM at PI3K α/β isoforms.
The molecule `Cc1cc(NCc2ccncc2)c2nc(N3CCOCC3)cc(=O)n2c1` [TGX-112] came in with an IC50 in assay [1] of 500 nM.
`Cc1ccc(Oc2cccc3c(=O)cc(N4CCOCC4)[nH]c23)cc1` [TGX-113] returned an IC50 in assay [1] of 500 nM.
On to `Cc1ccccc1Oc1cccc2c(=O)cc(N3CCOCC3)[nH]c12` [TGX-115, 8-(2′-Methylphenoxy)-2-morpholino-4-quinoline], for which the IC50 in assay [1] was determined as 50 nM; on PI3K γ, 5000 nM; on PI3K α/β isoforms it was 50 nM.
Regarding `O=c1cc(N2CCOCC2)oc2cc(/C=C/c3ccccc3)ccc12` [TGX-118], the IC50 in assay [1] was 10000 nM.
As for `Cc1cc(Nc2ccncc2)c2nc(N3CCOCC3)cc(=O)n2c1` [TGX-120], the midpoint of inhibition in assay [1], the IC50, lay at 1000 nM.
Regarding `O=c1cc(N2CCOCC2)[nH]c2c(Oc3ccc(F)cc3)cccc12` [TGX-121], the IC50 was determined as 50 nM in assay [1], 5000 nM on PI3K γ and 50 nM at PI3K α/β isoforms.
`Cc1cc(N[C@@H](C)c2ccccc2)c2nc(N3CCOCC3)cc(=O)n2c1` [TGX-124] registered an IC50 in assay [1] of 1000 nM.
`O=c1cc(N2CCOCC2)oc2c(O)cccc12` [TGX-125] returned an IC50 in assay [1] of 25000 nM.
As for `Cc1cc(Nc2ccccc2O)c2nc(N3CCOCC3)cc(=O)n2c1` [TGX-130], the IC50 in assay [1] came to 200 nM.
In turn, `O=c1cc(N2CCOCC2)oc2c(OCc3cccnc3)cccc12` [TGX-132] gave an IC50 in assay [1] of 1000 nM.
On the same count and under the same terms, for `O=c1cc(N2CCOCC2)oc2c(-c3ccccc3C(F)(F)F)cccc12` [TGX-135, 2-morpholinyl-8-(2-trifluoromethylphenyl)-4H-1benzopyran-4-one] the value was 200 nM; for `Cc1ccc(S(=O)(=O)Oc2cccc3c(=O)cc(N4CCOCC4)[nH]c23)cc1` [TGX-138], 1000 nM; for `Cc1cc(NCC2CCNCC2)c2nc(N3CCOCC3)cc(=O)n2c1` [TGX-139], 1000 nM.
In the case of `O=c1cc(N2CCOCC2)nc2c(Oc3ccccc3)cccn12` [TGX-141, 2-Morpholinyl-8-phenoxy-4H-pyrido[1,2a]pyrimidin-4-one], in assay [1], the IC50 was found to be 1000 nM.
In assay [1], `Cc1cc(-c2ccccc2C(F)(F)F)c2nc(N3CCOCC3)cc(=O)n2c1` [TGX-142] came in with an IC50 of 2000 nM.
Same read-out and setting: for `O=c1cc(N2CCOCC2)oc2cc(OCc3cccnc3)ccc12` [TGX-144] the value was 2000 nM; for `Cc1ccccc1-c1cccc2c(=O)cc(N3CCOCC3)oc12` [TGX-145, 2-morpholinyl-8-(2-methylphenyl)-4H-1-benzopyran-4-one], 2000 nM.
Turning to `O=c1cc(N2CCOCC2)oc2c(-c3ccccc3Cl)cccc12` [TGX-146, 2-morpholinyl-8-(2-chlorophenyl)-4H-1-benzopyran-4-one], the IC50 in assay [1] is 500 nM.
In turn, `Cc1cc(Nc2ccccc2C(F)(F)F)c2nc(N3CCOCC3)cc(=O)n2c1` [TGX-147] came in with an IC50 in assay [1] of 5000 nM.
In assay [1], `COC(=O)c1cccc(Oc2cccc3c(=O)cc(N4CCOCC4)[nH]c23)c1` [TGX-149] had an IC50 of 500 nM.
`O=C(O)c1cccc(Oc2cccc3c(=O)cc(N4CCOCC4)[nH]c23)c1` [TGX-151] registered an IC50 in assay [1] of 500 nM.
Regarding `Cc1cc(C2CCN(C)C2=O)c2nc(N3CCOCC3)cc(=O)n2c1` (stereo not drawn) [TGX-153], the IC50 in assay [1] came out at 20000 nM.
In the case of `Cc1c(OCc2ccccc2)ccc2c(=O)cc(N3CCOCC3)oc12` [TGX-154], inhibition in assay [1] was half-maximal at 10000 nM (IC50).
In assay [1], `Cc1c(Oc2ccccc2)ccc2c(=O)cc(N3CCOCC3)oc12` [TGX-157] displayed an IC50 of 5000 nM.
`Cc1c(Oc2ccccc2)ccc2c(=O)cc(N3CCOCC3)oc12` [TGX-158]: 5000 nM corresponded to half-maximal inhibition in assay [1] (IC50).
The same measure, in the same setting: for `Cc1c(Oc2ccccc2)ccc2c(=O)cc(N3CCOCC3)oc12` [TGX-159] the value was 10000 nM.
Still for that read-out and setting: in the case of `Cc1c(Oc2ccccc2)ccc2c(=O)cc(N3CCOCC3)oc12` [TGX-160] it was 2000 nM; in that of `Cc1cc(NCc2ccccn2)c2nc(N3CCOCC3)cc(=O)n2c1` [TGX-161], 500 nM; in that of `Cc1cc(Nc2ccccc2OCCN(C)C)c2nc(N3CCOCC3)cc(=O)n2c1` [TGX-162], 2000 nM.
The same measure, in the same setting: in the case of `O=c1cc(N2CCOCC2)oc2c(-c3ccc(F)cc3)cccc12` [TGX-165, 2-morpholinyl-8-(4-fluorophenyl)-4H-1-benzopyran-4-one] it was 1000 nM; in that of `Cc1cc(Nc2ccc(F)cc2C)c2nc(N3CCOCC3)cc(=O)n2c1` [TGX-170], 200 nM.
Consider `Cc1cc(Oc2cccc3c(=O)cc(N4CCOCC4)oc23)ccc1F` [TGX-173, 8-(4-fluoro-3-methylphenyl)oxy-2-morpholinyl-4H-1-benzopyran-4-one], for which the IC50 in assay [1] came out at 100 nM; against PI3K α/β isoforms, 150 nM.
As to `Cc1cc(Nc2ncccc2C)c2nc(N3CCOCC3)cc(=O)n2c1` [TGX-179], in assay [1], the midpoint of inhibition, the IC50, lay at 10000 nM.
For `Cc1cc(Cl)ccc1Oc1cccc2c(=O)cc(N3CCOCC3)[nH]c12` [TGX-180], in assay [1], the IC50 is 1000 nM.
In turn, `Cc1cc(CNc2ccccc2)c2nc(N3CCOCC3)cc(=O)n2c1` [TGX-183, 6-methyl-8-phenylaminomethyl-2-morpholinyl-4H-pyrido[1,2]pyrimidin-4-one] returned an IC50 against PI3K α/β isoforms of 50 nM.
